# According to US20240252494A1, “Mechanotransduction Disruption Mediation in Skin Grafting Methods and Compositions for Use in Practicing the Same” (The Board of Trustees of the Leland Stanford Junior …, priority 2021, published 2024):
# Columns and labels:
# [1] = tested on: full-thickness excisional wounds with STSG; experiment: Histological analysis of collagen architecture of porcine STSG; type: in vivo, red Duroc pigs
# Procedure: (§1) STSG were not disturbed during the first 3 days.
# No patient identifying information was retained with the samples.
# Masson's Trichrome staining and Picrosirius Red staining were performed, and images were captured with a Leica DM5000 B upright microscope. For Picrosirius Red, polarized light microscopy was used to obtain 40× magnification images and analysis of fiber alignment was performed using CurveAlign (109) and MatFiber (98, 110). The strength of alignment ranges from a value of 0 (completely random fiber alignment) to 1 (completely aligned fibers). Quantification of individual collagen fiber parameters (fiber length, width) was performed using CT-FIRE (http://loci.wisc.edu/software/ctfire) (109, 113).
# [2] = tested on: full-thickness excisional wounds with STSG; experiment: Scar contracture analysis in porcine STSG model; type: in vivo, red Duroc pigs
# From the text: as §1
# (§2) After three weeks, dressings (and hydrogels) were changed twice per week until month 3. STSG were no longer bolster dressed and instead a conventional dressing was used (Telfa+Tegaderm). Each STSG within the animal was biopsied for histological and molecular evaluation at the end of the study.
# STSG were monitored photographically at each dressing change. Each image was taken with a ruler or standard measurement device to standardize measurements. Scar areas were traced over time in ImageJ. Contracture was measured as change in scar area, normalized to the area of the STSG during the first dressing change. Two independent evaluators measured scar area, and the resultant scar area was the average of the two measurements.
# porcine STSG cells = experiment: scRNA-seq of porcine STSG tissue; type: in vivo, red Duroc pigs; settings: for number of DEGs between untreated STSG and STSG treated with FAKI: POD7
# Procedure: We obtained a 1 cm^2 tissue from the center of our STSG groups or unwounded skin. The tissue was thoroughly cut into small 1 mm^2 pieces using a scalpel before then being carefully minced with fine scissors. To maximize cell capture for scRNA-seq, diligent care was made to cut the tissue into a fine tissue paste consistency. An increased enzyme concentration and volume of 30 ml of 1 mg/mL Liberase (Sigma-Aldrich 5401127001) in PBS were used to fully break down the dense, fibrotic porcine extracellular matrix. The cell-digest suspensions were constantly agitated (rotated) for a total of 2 hours at 37° C. Tissue solution was subjected to maximum speed vortex mixer (VWR) for 30 seconds before being placed in the oven, after 1 hour, and again after total of 2 hours to physically disrupt any tissue that had clumped together and maximize the tissue surface area exposed to enzymatic digestion at all times.
# The tissue solution was filtered through a 100 μm Nylon cell filter (Fisher-Scientific 08-771-19) into a new conical tube, and 20 mL of 10% FBS DMEM was added through the filter to quench the enzymatic reaction and release any cells trapped within the filter, maximizing downstream cell yield. Solutions were spun at 350×g for 5 min at 4° C. in a centrifuge, supernatant was aspirated, and cells were then resuspended in 20 mL 10% FBS DMEM and passed through a 70 μm Nylon cell filter. A 20 mL solution of 10% FBS in PBS (FACS Buffer) was added through the filter to wash the remaining cells.
# This cellular suspension was then resuspended in a concentrated solution and submitted for droplet-based microfluidic single cell RNA sequencing (scRNA-seq) at the Stanford Functional Genomics Facility (SFGF) using the 10× Chromium Single Cell platform (Single Cell 3′ v3, 10× Genomics, USA). The cell suspension, reverse transcription master mix, and partitioning oil was loaded onto a single cell chip, processed on the Chromium Controller, and reverse transcription was performed at 53° C. for 45 min. cDNA was amplified for 12 cycles total (BioRad C1000 Touch thermocycler) with cDNA size selected using SpriSelect beads (Beckman Coulter, USA) and a 3:5 ratio of SpriSelect reagent volume to sample volume. cDNA was analyzed on an Agilent Bioanalyzer High Sensitivity DNA chip for qualitative control, fragmented for 5 min at 32° C., followed by end repair and A-tailing at 65° C. for 30 min, and then double-sided size selected with SpriSelect. Sequencing adaptors were ligated to the cDNA at 20° C. for 15 min. cDNA was amplified using a sample-specific index oligo as primer, followed by another round of double-sided size selection. Final libraries were analyzed on an Agilent Bioanalyzer High Sensitivity DNA chip for qualitative control purposes. cDNA libraries were sequenced on a HiSeq 4000 Illumina platform aiming for 50,000 reads per cell.
# Base calls were converted to reads using the Cell Ranger (10× Genomics; version 3.1) implementation of mkfastq and then aligned against our custom pig transcriptome using Cell Ranger's count function with SC3Pv3 chemistry and 5,000 expected cells per sample (51). Cell barcodes were filtered for high quality based on an optimized threshold of having at least 200 unique transcripts profiled, less than 10,000 total transcripts, and less than 10% of their transcriptome of mitochondrial origin (114).
# Unique molecular identifiers (UMIs) from each cell barcode were retained for all downstream analysis. Raw UMI counts were normalized with a scale factor of 10,000 UMIs per cell and subsequently natural log transformed with a pseudocount of 1 using the R package Seurat (version 3.1.1) (52). Highly variable genes were identified, and cells were scaled by regression to the fraction of mitochondrial transcripts. Aggregated data was then evaluated using uniform manifold approximation and projection (UMAP) analysis over the first 15 principal components (115). […]
# [3] = tested on: full-thickness excisional wounds with STSG; experiment: Cutometer viscoelastic analysis of STSG biomechanical properties; type: in vivo, red Duroc pigs; settings: vs untreated STSG; P<0.05
# From the text: as §1, §2
# A cutometer (Dual MPA 580, Courage+Khazaka Electronic) was used to evaluate the firmness and elasticity of the healing tissue and unwounded skin. Cutometer assessment is one of the most common instruments to measure viscoelasticity in human patients (111, 112), measuring the vertical deformation of the skin surface by applying negative pressure (suction) through a small circular diameter (8 mm probe). Deformation (suction) for two seconds followed by two seconds of relaxation (no suction) was applied three times and averaged. The firmness 0 was measured as the amplitude at the end of the suction phase (RO metric) and normalized against the values of STSG treated with blank hydrogels (111). Increased deformation to a consistent negative pressure corresponds to less firm tissue, more similar to unwounded skin.
# porcine fibroblasts = experiment: 3D organotypic scar culture system (strained collagen scaffolds), scRNA-seq; type: cell-based; settings: 10% strain, 10 µM FAKI
# From the text: (§3) To determine whether the increased mechanical strain experienced by cells within the healing STSG would trigger the same fibroblast transcriptional states observed in vivo, we used our previously published three-dimensional (3D) organotypic scar culture system that permits the precise manipulation of strain (and therefore stress) without any other potential confounding factors (27, 98). Fibroblasts were first isolated from human skin and seeded within 3D collagen scaffolds (FIG. 8A). These scaffolds were then subjected to either 10% strain (Strain, S), 10% strain with FAK inhibition (Strain+FAKI, S+FAKI), or 0% strain (No Strain, NS) as a control (FIG. 8, A to C). Because it seemed likely that healing tissue would not be subjected to maximal strains (due to pain), we used a strain profile of 10% to represent the average wound strain environment.
# We isolated and cultured dermal fibroblasts from both healthy human and porcine skin samples. Fibroblasts were isolated by mechanical and enzymatic digestion and cultured under standard conditions until passage 3. […]
# We used a suture to paint nine Titanium(IV) oxide dots (Sigma-Aldrich 248576) on the surface of the central region of the gel to track and quantify the imposed strains. […]
# tumor growth = settings: in vivo; cited from earlier work
# human fibroblasts = experiment: 3D organotypic scar culture system (strained collagen scaffolds), immunofluorescent staining; type: cell-based; settings: 10% strain, 48 hours, 10 µM FAKI, vs strained fibroblasts
# From the text: as §3
# We isolated and cultured dermal fibroblasts from both healthy human and porcine skin samples. Fibroblasts were isolated by mechanical and enzymatic digestion and cultured under standard conditions until passage 3. Following our previously published protocols (98), we used the primary fibroblasts to create fibroblast-populated collagen hydrogels with a concentration of 200 k cells/mL and 2 mg/mL collagen (PureCol, Advanced Biomatrix 5005). In brief, collagen scaffolds were formulated in a cruciform shape with sponges in the arms and cultured in petri dishes on top of a layer (˜0.5 cm) of cured polydimethylsiloxane (PDMS; Sylgard 184 Silicone Elastomer Kit; Dow Corning). Pins were pushed through the sponges in the hydrogel cruciform arms to constrain the scaffolds during an initial pre-culture period (24h). Then, we subjected the scaffolds to either 0% strain (no strain) or 10% equibiaxial strain (either with or without FAKI) for an additional 48 hours. Strained but untreated cells were given 10 μL DMSO in 20 mL culture media, while strained and treated cells were administered 10 μL of 20 mM FAKI in DMSO in 20 mL culture media to achieve a final concentration of 10 µM FAKI.
# We used a suture to paint nine Titanium(IV) oxide dots (Sigma-Aldrich 248576) on the surface of the central region of the gel to track and quantify the imposed strains. We used a digital camera to image the markers before and after strain. Strain was imposed by removing the pins, manually extending the hydrogel cruciform arms, and pushing the pins back through the arms to hold the scaffold in a new, extended position. Photographs of the marker positions were used to compute a single homogenous deformation gradient tensor F that provided the least-squares best fit mapping of the 9 marker positions from the undeformed to deformed positions by solving the overdetermined matrix equation: […]
# [4] = POD90, regenerative lineages 1 and 2
smiles,measurement,setting,value
CN(c1ncccc1CNc1nc(Nc2ccc3c(c2)CC(=O)N3)ncc1C(F)(F)F)S(C)(=O)=O [FAKI],collagen fiber length and alignment,"[1]; deep dermis, POD90, P<0.05",shorter and more randomly aligned
same,overall collagen deposition,"[1]; superficial and deep dermis, by decreasing fiber widths and architectural complexity",decreased
same,scar contracture at early time points,"[2]; POD7, P=0.09, POD21, P<0.05",blocked scar contracture
same,scar contracture,"[2]; POD28, change in scar area normalized to STSG area at first dressing change, untreated and blank hydrogel-treated STSGs over 70%",30%
same,secretion of IP-10 (CXCL10),"porcine STSG tissue; POD 7, P<0.05",upregulated
same,number of infiltrating inflammatory cells (F4/80-positive macrophages),"porcine STSG tissue; early (POD 7, P<0.001) and late (POD 90, P<0.05) time points",significantly decreased
same,number of DEGs between untreated STSG and STSG treated with FAKI,porcine STSG cells; all other cell types,< 75
same,number of DEGs between untreated STSG and STSG treated with FAKI,porcine STSG cells; fibroblasts,about 50
same,number of DEGs between untreated STSG and STSG treated with FAKI,"porcine STSG cells; monocyte-lineage cells (macrophages, monocytes, dendritic cells)",> 170
same,number of DEGs between untreated STSG and STSG treated with FAKI,"porcine STSG cells; neutrophils and lymphoid cells, each",around 100
same,adipogenic gene sets and stem cell markers (CD34 and NT5E) in fibroblasts,"porcine STSG cells; POD90, lineages 1 and 2",promoted
same,fibroblast transcriptional state (CellRank lineages),"porcine STSG cells; POD90, primarily lineages 1 and 2",transcriptional similarity to those from unwounded skin
same,"APOE, CLEC3B, CD34, and PPARG unspliced pre-mRNA in fibroblasts",porcine STSG cells; [4],upregulation
same,pro-fibrotic genes in fibroblasts,porcine STSG cells; [4],abrogation
same,STSG firmness and stiffness (cutometer deformation),[3],less firm and less stiff
same,"APOE, EGR1 and PRDX1 expression",porcine fibroblasts,upregulation
same,"pro-fibrotic responses (CXCL14, THBS2, COL1A1 expression)",porcine fibroblasts,abrogated
same,tumor growth,tumor growth,blocks tumor growth
same,CD34 expression,human fibroblasts; P<0.0001,significantly increasing
same,APOE expression,human fibroblasts; P<0.01,significantly increasing
same,aSMA expression,human fibroblasts; P<0.01,significantly decreased
same,CXCL14 expression,human fibroblasts; P<0.05,significantly decreased
same,THBS4 expression,human fibroblasts; P<0.05,significantly decreased
